Experimental data from patent US20200291018A1, “TAM KINASE INHIBITORS” (SYROS PHARMACEUTICALS, INC., priority 2017, published 2020).

Key:
TYRO3 = molecular target: T1, TYRO3 (Homo sapiens, UniProt Q06418); assay: TR-FRET kinase activity assay, TYRO3; format: biochemical; conditions: ATP at Km, 60 minutes
T1 sequence (Q06418 41-890): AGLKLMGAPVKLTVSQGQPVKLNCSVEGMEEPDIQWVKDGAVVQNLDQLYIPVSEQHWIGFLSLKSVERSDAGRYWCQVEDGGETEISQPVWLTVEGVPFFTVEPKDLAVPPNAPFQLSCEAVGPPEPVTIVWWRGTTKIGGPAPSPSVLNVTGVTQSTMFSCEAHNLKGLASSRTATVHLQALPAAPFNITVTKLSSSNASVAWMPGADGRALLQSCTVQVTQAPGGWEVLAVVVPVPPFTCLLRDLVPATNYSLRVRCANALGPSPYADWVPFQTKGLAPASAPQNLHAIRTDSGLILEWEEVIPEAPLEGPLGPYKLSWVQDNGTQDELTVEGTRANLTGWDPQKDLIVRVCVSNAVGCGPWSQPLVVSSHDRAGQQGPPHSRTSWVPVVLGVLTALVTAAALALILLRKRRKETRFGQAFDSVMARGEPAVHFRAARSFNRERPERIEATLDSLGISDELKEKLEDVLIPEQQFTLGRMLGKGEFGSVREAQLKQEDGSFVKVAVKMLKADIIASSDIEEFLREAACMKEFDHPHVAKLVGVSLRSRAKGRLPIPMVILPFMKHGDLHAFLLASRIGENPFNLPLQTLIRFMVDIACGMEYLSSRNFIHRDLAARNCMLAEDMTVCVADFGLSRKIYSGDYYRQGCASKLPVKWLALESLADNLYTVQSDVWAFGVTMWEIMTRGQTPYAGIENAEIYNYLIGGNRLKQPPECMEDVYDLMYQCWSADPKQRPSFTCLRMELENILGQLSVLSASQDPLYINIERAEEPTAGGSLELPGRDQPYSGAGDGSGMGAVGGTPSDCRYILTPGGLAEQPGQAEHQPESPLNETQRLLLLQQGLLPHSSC
Procedure: (§1) IC50 values for compound inhibition of AXL, FLT3, MERTK and TYRO3 activity were determined using a TR-FRET activity assay. A peptide substrate with a fluorescent label is phosphorylated on a tyrosine by each enzyme, where the now phosphorylated product is bound by a Europium-labeled antibody specific to that phosphorylation site. The proximity between the antibody and the substrate gives a signal known as TR-FRET. As the enzyme is inhibited by compound, less phosphorylated peptide product is made, causing a decrease in overall signal.
(§2) Activity assays were performed in a 384-well, small volume, black microplates in an active enzyme volume of 10 uL and final developed volume of 20 uL. Final assay conditions are 50 mM HEPES pH 7.5, 10 mM MgCl2, 1 mM EGTA, 0.01% Brij 35 and 1 mM DTT, all at RT. Enzyme, substrate-labeled peptide and compound are mixed, and then the reaction is initiated with the addition of ATP at Km concentration for each enzyme. The reaction is allowed to run 60 minutes and then quenched with a 12.5 mM EDTA (ethylenediamine tetraacetic acid) solution. The plate is then developed with the addition of Europium-labeled antibody for a final volume of 20 uL and is then incubated for 30 minutes in darkness. Plates are read in a PHERASTAR® plate reader. Data are analyzed in GraphPad PRISM.

AXL = molecular target: T2, AXL (Homo sapiens, UniProt P30530); assay: TR-FRET kinase activity assay, AXL; format: biochemical; conditions: ATP at Km, 60 minutes
T2 sequence (P30530 26-894): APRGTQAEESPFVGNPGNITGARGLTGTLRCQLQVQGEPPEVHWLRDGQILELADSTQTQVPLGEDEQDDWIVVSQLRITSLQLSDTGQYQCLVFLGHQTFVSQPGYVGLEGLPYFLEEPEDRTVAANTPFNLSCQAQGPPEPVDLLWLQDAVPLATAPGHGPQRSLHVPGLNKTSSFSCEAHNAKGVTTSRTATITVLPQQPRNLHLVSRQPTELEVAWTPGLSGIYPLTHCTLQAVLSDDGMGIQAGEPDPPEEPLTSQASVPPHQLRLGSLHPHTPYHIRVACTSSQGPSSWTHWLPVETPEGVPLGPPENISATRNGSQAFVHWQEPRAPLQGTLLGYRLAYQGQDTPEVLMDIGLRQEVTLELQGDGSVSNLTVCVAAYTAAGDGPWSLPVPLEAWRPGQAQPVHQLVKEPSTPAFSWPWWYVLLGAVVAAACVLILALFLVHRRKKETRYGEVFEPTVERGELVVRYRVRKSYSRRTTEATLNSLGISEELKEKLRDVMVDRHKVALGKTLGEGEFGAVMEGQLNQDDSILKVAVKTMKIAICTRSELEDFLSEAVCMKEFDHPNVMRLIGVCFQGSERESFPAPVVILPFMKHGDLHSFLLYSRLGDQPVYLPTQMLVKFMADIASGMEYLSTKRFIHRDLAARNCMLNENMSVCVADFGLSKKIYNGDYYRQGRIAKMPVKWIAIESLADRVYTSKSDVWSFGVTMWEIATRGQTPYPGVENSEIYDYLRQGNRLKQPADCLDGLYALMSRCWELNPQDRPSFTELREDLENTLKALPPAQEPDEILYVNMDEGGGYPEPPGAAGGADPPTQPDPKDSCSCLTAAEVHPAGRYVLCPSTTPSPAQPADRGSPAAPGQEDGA
Procedure: as §1, §2

Row | IC50 (TYRO3) [nM] | IC50 (AXL) [nM] | SMILES
1 | ≤ 100 | ≤ 100 | CC[C@H](C)Nc1ncc2c(OC3CCN(S(C)(=O)=O)CC3)ncc([C@H]3CC[C@H](O)CC3)c2n1 [Compound 233]
2 | ≤ 100 | 100 to 1000 | CC[C@H](C)Nc1ncc2c(=O)n(C3CCN(S(C)(=O)=O)CC3)cc([C@H]3CC[C@H](O)CC3)c2n1 [Compound 234]
3 | ≤ 100 | ≤ 100 | CCOc1ncc([C@H]2CC[C@H](O)CC2)c2nc(N[C@@H](C)CC)ncc12 [Compound 235]
4 | 100 to 1000 | 100 to 1000 | CCOc1ncc(CC2CCNCC2)c2nc(N[C@@H](C)CC)ncc12 [Compound 236]
5 | 1000 to 10000 | 1000 to 10000 | CC[C@H](C)Nc1ncc2c(OC3C[C@H]4CC[C@@H](C3)O4)ncc([C@H]3CC[C@H](O)CC3)c2n1 (some centres unmarked) [Compound 237]
6 | 1000 to 10000 | 100 to 1000 | CC[C@H](C)Nc1ncc2c(NC34CCC(O)(CC3)CC4)ncc([C@H]3CC[C@H](O)CC3)c2n1 [Compound 238]
7 | ≤ 100 | 100 to 1000 | CC[C@H](C)Nc1ncc2c(OC3CCN(C)CC3)ncc([C@H]3CC[C@H](O)CC3)c2n1 [Compound 239]
8 | 100 to 1000 | 1000 to 10000 | CC[C@H](C)Nc1ncc2c(C3CCN(C)CC3)ncc([C@H]3CC[C@H](O)CC3)c2n1 [Compound 240]
9 | ≤ 100 | 1000 to 10000 | CC[C@H](C)Nc1ncc2c(OC(CO)CO)ncc([C@H]3CC[C@H](O)CC3)c2n1 [Compound 241]
10 | 100 to 1000 | 1000 to 10000 | COC[C@H](C)Nc1ncc2c(OC3CCOCC3)ncc(C3=CCC4(CC3)OCCO4)c2n1 [Compound 242]
11 | 1000 to 10000 | 1000 to 10000 | COC[C@H](C)Nc1ncc2c(OC3CCOCC3)ncc(C3CCC4(CC3)OCCO4)c2n1 [Compound 243]
12 | 1000 to 10000 | 100 to 1000 | CCc1ncc([C@H]2CC[C@H](O)CC2)c2nc(N[C@@H](C)CC)ncc12 [Compound 244]
13 | ≤ 100 | 100 to 1000 | CC[C@H](C)Nc1ncc2c(OCC(F)(F)F)ncc([C@H]3CC[C@H](O)CC3)c2n1 [Compound 245]
14 | ≤ 100 | 100 to 1000 | CC[C@H](C)Nc1ncc2c(OC3CC(C)(C)NC(C)(C)C3)ncc([C@H]3CC[C@H](O)CC3)c2n1 [Compound 246]
15 | 100 to 1000 | 1000 to 10000 | CC[C@H](C)Nc1ncc2c(OC3C[C@@H](C)O[C@@H](C)C3)ncc([C@H]3CC[C@H](O)CC3)c2n1 (some centres unmarked) [Compound 247]
16 | ≤ 100 | 100 to 1000 | CC[C@H](C)Nc1ncc2c(=O)n(CC34CCC(N)(CC3)CC4)cc([C@H]3CC[C@H](O)CC3)c2n1 [Compound 251]
17 | 100 to 1000 | 1000 to 10000 | CCOc1ncc(CC2CCN(C)CC2)c2nc(N[C@@H](C)CC)ncc12 [Compound 253]
18 | 1000 to 10000 | 1000 to 10000 | CCOc1ncc(CC2CCN(C(=O)OC(C)(C)C)CC2)c2nc(N[C@@H](C)CC)ncc12 [Compound 254]
19 | ≤ 100 | ≤ 100 | CC[C@H](C)Nc1ncc2c(C)ncc([C@H]3CC[C@H](O)CC3)c2n1 [Compound 255]
20 | 100 to 1000 | 1000 to 10000 | CC[C@H](C)Nc1ncc2c(OCC34CCC(O)(CC3)CC4)ncc([C@H]3CC[C@H](O)CC3)c2n1 [Compound 256]

Row | IC50 (TYRO3) [nM] | IC50 (AXL) [nM] | SMILES
21 | ≤ 100 | ≤ 100 | CC[C@H](C)Nc1ncc2c(=O)n(CC34CCC(O)(CC3)CC4)cc([C@H]3CC[C@H](O)CC3)c2n1 [Compound 257]
22 | ≤ 100 | ≤ 100 | COC[C@H](C)Nc1ncc2c(OC3CC(C)(C)N(C)C(C)(C)C3)ncc([C@H]3CC[C@H](O)CC3)c2n1 [Compound 259]
23 | ≤ 100 | 100 to 1000 | COC[C@H](C)Nc1ncc2c(O[C@H]3CC[C@H](O)CC3)ncc([C@H]3CC[C@H](O)CC3)c2n1 [Compound 260]
24 | 100 to 1000 | 100 to 1000 | CC[C@H](C)Nc1ncc2c(O[C@H]3CC[C@H](C(C)(C)O)CC3)ncc([C@H]3CC[C@H](O)CC3)c2n1 [Compound 261]
25 | ≤ 100 | 100 to 1000 | O[C@H]1CC[C@H](c2cnc(OC3CCNCC3)c3cnc(Nc4ccccc4F)nc32)CC1 [Compound 262]
26 | 100 to 1000 | 100 to 1000 | CC[C@H](C)Nc1ncc2c(=O)n(C[C@@H]3COCCN3C)cc([C@H]3CC[C@H](O)CC3)c2n1 [Compound 263]
27 | ≤ 100 | ≤ 100 | CC[C@H](C)Nc1ncc2c(=O)n(CC34CCC(N(C)C)(CC3)CC4)cc([C@H]3CC[C@H](O)CC3)c2n1 [Compound 264]
28 | 100 to 1000 | 1000 to 10000 | CC[C@H](C)Nc1ncc2c(=O)n(C[C@H]3COCCN3C)cc([C@H]3CC[C@H](O)CC3)c2n1 [Compound 265]
29 | ≤ 100 | 100 to 1000 | CC[C@H](C)Nc1ncc2c(=O)n([C@H]3CC[C@H](N(C)C)C3)cc([C@H]3CC[C@H](O)CC3)c2n1 [Compound 266]
30 | ≤ 100 | ≤ 100 | CC[C@H](C)Nc1ncc2c(O[C@H]3CC[C@H](N(C)C)C3)ncc([C@H]3CC[C@H](O)CC3)c2n1 [Compound 267]
31 | 100 to 1000 | 100 to 1000 | CC(C)(C)Nc1ncc2c(OC3CCNCC3)ncc([C@H]3CC[C@H](O)CC3)c2n1 [Compound 268]
32 | ≤ 100 | ≤ 100 | O[C@H]1CC[C@H](c2cnc(OC3CCNCC3)c3cnc(Nc4ccc(F)cc4)nc32)CC1 [Compound 269]
33 | ≤ 100 | ≤ 100 | O[C@H]1CC[C@H](c2cnc(OC3CCNCC3)c3cnc(Nc4cccc(F)c4)nc32)CC1 [Compound 270]
34 | 100 to 1000 | 1000 to 10000 | CC[C@H](C)Nc1ncc2c(=O)n(-c3ccc(N)cc3)cc([C@H]3CC[C@H](O)CC3)c2n1 [Compound 271]
35 | ≤ 100 | ≤ 100 | COC(=O)c1ccc(Nc2ncc3c(OC4CCNCC4)ncc([C@H]4CC[C@H](O)CC4)c3n2)cc1 [Compound 272]
36 | 100 to 1000 | 100 to 1000 | CCOc1ncc([C@H]2CC[C@H](O)CC2)c2nc(N[C@@H](C)COC)ncc12 [Compound 273]
37 | 100 to 1000 | 100 to 1000 | CC(C)Nc1ncc2c(OC3CCOCC3)ncc(-c3cccc(CC#N)c3)c2n1 [Compound 274]
38 | 100 to 1000 | 1000 to 10000 | CC[C@H](C)Nc1ncc2c(OC3C[C@@H](C)O[C@@H](C)C3)ncc([C@H]3CC[C@H](O)CC3)c2n1 (some centres unmarked) [Compound 275]
39 | 100 to 1000 | 1000 to 10000 | CC(C)Nc1ncc2c(OC3CCOCC3)ncc(-c3cccc(CC(=O)O)c3)c2n1 [Compound 276]
40 | 1000 to 10000 | 1000 to 10000 | O[C@H]1CC[C@H](c2cnc(OC3CCOCC3)c3cnc(N[C@H]4CCNC4)nc32)CC1 [Compound 277]
